The nature of data set [1]: Pharmacokinetic test (PK test) using rodents. In kind it is in vivo. To be noted: mouse, brain and plasma; mice, 10 mg/kg oral, an hour and 4 hours after; read-out: brain-plasma concentration ratio. The procedure: Moreover, it was verified, as the results of a pharmacokinetic test (PK test) using rodents, that the compound of the present invention has more excellent in vivo kinetics, central nervous system penetration, and exposure level, compared with the pyrrolidine derivative described in Patent Literature 1. In particular, the following Test Example 8 was performed.
Pharmacokinetic Test (PK Test) Using Rodents
Compounds of the present invention were orally administered to mice at a dose of 10 mg/kg, and an hour and 4 hours after, the plasma and the brain were collected, concentrations of the administered compounds were measured by LC/MS/MS. As well, protein binding rates in the plasma and the brain were measured with equilibrium dialysis method, and concentrations of non-binding compounds were calculated. The brain-plasma concentration ratio was about 5 in any cases of an hour and 4 hours after for compounds obtained in Examples 7, 14, 15, 16, 17, 18, 20, 21, 27, 40, and 50, which indicated excellent central nervous system penetration.

In data set [2] the target is human SSTR4 (Homo sapiens, UniProt P31391). Description: Evaluation of agonist activities using human SSTR4-stably expressing cells (aequorin luminescence). In kind it is cell-based. On the set-up: expressed in transfected cells; host or cells: HEK293. The essentials:
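HEK293 cells stably expressing SSTR4, transiently given Gα16 and apoaequorin, were loaded with 0.5 μmol/L coelenterazine H for 4 h at room temperature. After compound addition in Hanks/20 mM Hepes/0.1% BSA, luminescence was read for 90 s. Activity is relative to 1 μmol/L somatostatin as 100%.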

Chain of human SSTR4 (P31391 whole entry): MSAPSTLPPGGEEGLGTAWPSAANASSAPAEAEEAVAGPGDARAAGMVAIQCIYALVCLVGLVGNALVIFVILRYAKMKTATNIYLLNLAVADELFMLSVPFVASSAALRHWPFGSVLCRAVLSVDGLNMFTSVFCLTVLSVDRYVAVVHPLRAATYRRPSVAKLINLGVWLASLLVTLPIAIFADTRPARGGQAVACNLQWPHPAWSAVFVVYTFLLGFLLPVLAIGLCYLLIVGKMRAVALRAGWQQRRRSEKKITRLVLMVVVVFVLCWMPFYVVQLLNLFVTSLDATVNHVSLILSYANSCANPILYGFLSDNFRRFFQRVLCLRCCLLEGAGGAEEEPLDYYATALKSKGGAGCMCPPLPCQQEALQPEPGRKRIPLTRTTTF

As for `CN1CCC[C@H](C(=O)NC(C)(C)c2cc(Cl)ccc2Cl)C1` [Example 21, (3S)—N-[2-(2,5-dichlorophenyl)propane-2-yl]-1-methylpiperidine-3-carboxamide], in data set [1], the Kp was approximately 5. Moreover, the “SSTR4 agonist activity compared with other compounds” value in data set [2] (Tables 25 to 27) is reported as “stronger SSTR4 agonist activity”. Further, it took 2 nM to reach a half-maximal effect in data set [2] (luminescence signal, 1 μmol/L somatostatin taken as 100%) (EC50).

Values taken from US20160221948A1, “NITROGEN-CONTAINING SATURATED HETEROCYCLIC COMPOUND” (SUMITOMO CHEMICAL COMPANY, LIMITED, priority 2013, published 2016).
